From patent publication US5354738A, “Platelet aggregation inhibitors” (G. D. Searle & Co., priority 1992, dated 1994)

Test system: Dog PRP
Test: In-Vitro Platelet Aggregation in PRP (ADP-induced, dog platelet-rich plasma)
Type: cell-based
Settings: Canis lupus familiaris, 1 minute preincubation at 37° C., IC50 by linear regression of dose response curve
Protocol: In-Vitro Platelet Aggregation in PRP
Healthy male or female dogs were fasted for 8 hours prior to drawing blood; then 30 ml whole blood was collected using a butterfly needle and 30 cc plastic syringe with 3 ml of 0.129M buffered sodium citrate (3.8%). The syringe was rotated carefully as blood was drawn to mix the citrate. Platelet-rich plasma (PRP) was prepared by centrifugation at 975×g for 3.17 minutes at room temperature, allowing the centrifuge to coast to a stop without braking. The PRP was removed from the blood with a plastic pipette and placed in a plastic capped, 50 ml Corning conical sterile centrifuge tube which was held at room temperature. Platelet poor plasma (PPP) was prepared by centrifuging the remaining blood at 2000×g for 15 minutes at room temperature allowing the centrifuge to coast to a stop without braking. The PRP was adjusted with PPP to a count of 2-3×10^8 platelets per ml. 400 μl of the PRP preparation and 50 μl of the compound to be tested or saline were preincubated for 1 minute at 37° C. in a BioData aggregometer (BioData, Horsham, Pa.). 50 μl of adenosine 5'-diphosphate (ADP) (50 μm final concentration) was added to the cuvettes and the aggregation was monitored for 1 minute. All compounds are tested in duplicate. Results are calculated as follows: […]

Structure (SMILES) | IC50 [nM]
N=C(N)c1ccc(CCCCNC(=O)N[C@@H](CC(=O)O)C(=O)N[C@@H](Cc2ccccc2)C(=O)O)cc1 [Example 2, N-[N-[[[4-[4-(aminoiminomethyl)phenyl]butyl]amino]-carbonyl]-L-α-aspartyl]-L-phenylalanine] | 760
N=C(N)c1ccc(CCCCNC(=O)N[C@@H](CC(=O)O)C(=O)N[C@@H](Cc2c[nH]c3ccccc23)C(=O)O)cc1 [Example 3, N-[N-[[[4-[4-(aminoiminomethyl)phenyl]butyl]amino]carbonyl]-L-α-spartyl]-L-tryptophane] | 200
